Experimental data reported in patent US4202902A, “Lipogenesis control by cyclopropane-carboxylic acids, esters and amides” (Shell Oil Company, priority 1979, dated 1980).

Legend:
swine adipose tissue = experiment: In vitro inhibition of lipogenesis (incorporation of radioactive glucose carbon into lipid) in swine adipose tissue slices; assay type: cell-based; conditions: Sus scrofa, 100 micrograms per milliliter, 37° C., 2 hours, 5% DMSO, compared to control without test compound, triplicate, read-out: Percent Inhibition of lipogenesis
Excerpt: The manner in which they cause this effect is not known with certainty; it is believed that they interfere with the synthesis of fatty acids in the tissue. Their effectiveness for this purpose has been ascertained by immersing samples of swine adipose tissue in a liquid medium containing radioactive glucose and the test chemical for a period time, then isolating the lipid from the treated tissue and determining the incorporation of the ratioactive carbon into the lipid by means of scintillation counting techniques. These tests were conducted in swine adipose tissue because in swine the primary site of lipogenesis--i.e., fatty acid synthesis--appears to be adipose tissue.
Described in more detail, the tests were conducted according to the following general procedure.
150 milligrams of slices of swine adipose tissue were incubated at 37° C. for 2 hours with shaking in 3 milliliters of Krebs-Ringer bicarbonate solution containing one-half the usual calcium ion concentration, 60 micromoles of glucose, 0.5 microCurie of glucose-U^14 C, and 100 milliunits of insulin, and 5% dimethyl sulfoxide (DMSO). The test compounds were added as a solution or suspension in DMSO and were present at a concentration of 100 micrograms per milliliter of the incubation mixture.
The incubation was terminated by addition of 0.25 milliliter of 1 N sulfuric acid. The resulting mixture was extracted with a total of 25 milliliters of chloroform:methanol (2:1 v/v). The extracts were washed according to Folch et al. (J. Biol. Chem., 226, 497-509, (1957)), air dried, and counted in a liquid scintillation counter with 15 milliliters of counting fluid (two parts toluene containing 0.4% w/v New England Nuclear Omnifluor: 1 part Triton X-100). The tests were conducted in triplicate and were accompanied by control tests in which all ingredients,proportions and conditions were the same except that no test compound was included. From the data obtained were calculated the percent inhibition of lipid synthesis by the test compound in each case. The data obtained from these tests were set out in Table I, as the percent inhibition of lipogenesis compared to the results obtained in the control tests wherein only the test compound was omitted.

[1] = test system: swine adipose tissue lipid synthesis; experiment: In vivo inhibition of swine adipose tissue lipid synthesis (pigs dosed in feed, biopsy slices incubated with radioactive glucose); conditions: approx. 25 mg/kg per day for seven days in ration, compared to control animals; for lipogenic rate after 2 weeks: biopsy 1 week after withdrawal of drug; for effect on lipogenesis after 1 week: biopsy after 1 week of drug administration
Experimental: Compounds 1 and 6 were tested to determine the in vivo inhibition of swine adipose tissue lipid synthesis, as follows: pigs weighing about 20 kilograms were administered a fixed drug dose of approximately 25 milligrams of drug per kilogram of animal body weight per day for seven consecutive days. The drug was formulated to contain 10%w active ingredient and was prepared as coarse granules using 4%w plasdene as the granulating agent and lactose as the carrier. […] The daily drug or placebo dose was added to 1.2 kilograms of swine ration; about one-third of the total was fed at 0800, 1200, and 1600 hours. Biopsy samples were obtained from the dorsal subcutaneous adipose tissue (ca 1 gram) in the neck region before drug administration, after 1 week of drug administration, and 1 week after withdrawal of drug. Adipose tissue slices were prepared from the biopsy sample, and in vitro lipogenesis was determined with radioactive glucose as substrate. The incubation was similar to that previously described except that there was no DMSO or test compound in the flasks.

CCCCCCCCC[C@@H]1C[C@H]1C(=O)OCC (relative stereo) [Compound 2, Ethyl 2-nonylcyclopropanecarboxylate (trans-)]
inhibition at 100 µg/mL (swine adipose tissue): 27%

CCCCCCCCC[C@@H]1C[C@H]1C(N)=O (relative stereo) [Compound 8, 2-Nonylcyclopropanecarboxycarboxamide (trans)]
inhibition at 100 µg/mL (swine adipose tissue): 34%

N#CC1(C(=O)O)CC1c1ccccc1 (stereo not drawn) [Compound 11, 1-Cyano-2-phenylcyclopropanecarboxylic acid]
inhibition at 100 µg/mL (swine adipose tissue): 49%

CCOC(=O)C1(C#N)CC1c1ccccc1 (stereo not drawn) [Compound 9, Ethyl 1-cyano-2-phenylcyclopropanecarboxylate]
inhibition at 100 µg/mL (swine adipose tissue): 57%

O=C(O)[C@@H]1C[C@H]1c1ccccc1 (relative stereo) [Compound 13, 2-phenylcyclopropane-1-carboxylic acid (trans)]
inhibition at 100 µg/mL (swine adipose tissue): 32%

CCOC(=O)C1CC1COC(C)=O (stereo not drawn) [Compound 12, Ethyl 2-((acetyloxy)methyl)cyclopropanecarboxylate]
inhibition at 100 µg/mL (swine adipose tissue): 31%

CCCCCCCCCCCCCC[C@@H]1C[C@H]1C(=O)O (relative stereo) [Compound 7, 2-tetradecylcyclopropanecarboxylic acid (trans)]
inhibition at 100 µg/mL (swine adipose tissue): 46%

CCOC(=O)C1CC1(C#N)c1ccccc1 (stereo not drawn) [Compound 14, Ethyl 2-cyano-2-phenylcyclopropanecarboxylate]
inhibition at 100 µg/mL (swine adipose tissue): 53%

CCCCCCCC[C@@H]1C[C@H]1C(=O)OCC (relative stereo) [Compound 1, Ethyl 2-octylcyclopropanecarboxylate (trans)]
inhibition at 100 µg/mL (swine adipose tissue): > 20%
lipogenic rate after 2 weeks [1]: significantly reduced the lipogenic rate
effect on lipogenesis after 1 week [1]: neither of the test compounds had significantly affected lipogenesis

CCCCCCC1CC1(C#N)C(=O)OCC (stereo not drawn) [Compound 10, Ethyl 1-cyano-2-hexylcyclopropanecarboxylate (trans-)]
inhibition at 100 µg/mL (swine adipose tissue): 44%

CCCCCCCC[C@@H]1C[C@H]1C(N)=O (relative stereo) [Compound 4, 2-Octylcyclopropanecarboxamide (trans)]
inhibition at 100 µg/mL (swine adipose tissue): > 20%

CCCCCCCC[C@@H]1C[C@H]1C(=O)O (relative stereo) [Compound 6, 2-octylcyclopropanecarboxylic acid (trans)]
inhibition at 100 µg/mL (swine adipose tissue): 77%
lipogenic rate after 2 weeks [1]: significantly reduced the lipogenic rate
effect on lipogenesis after 1 week [1]: neither of the test compounds had significantly affected lipogenesis

CCCCC1CC1C(=O)OCC (stereo not drawn) [Compound 3, Ethyl 2-butylcyclopropanecarboxylate]
inhibition at 100 µg/mL (swine adipose tissue): 24%

CCCCCCCCC[C@@H]1C[C@H]1C(=O)O (relative stereo) [Compound 5, 2-Nonylcyclopropanecarboxylic acid (trans)]
inhibition at 100 µg/mL (swine adipose tissue): 79%
